Source: patent US20260285924A1, “PEPTIDE THERAPEUTICS” (priority 2023, published 2026)

Key:
A375 cells = test: A-to-I PepTile screen: fitness effect upon IFNα (PepTile abundance untreated vs treated); type: cell-based, human
From the text: (§1) FIGS. 12A-12D. A-to-I PepTile screen. (A) Composition of A-to-I PepTile linrary screen, and schematic description of the lentiviral expression vector. (B) Experimental workflow. A375 cells were transduced at low MOI, and then treated or not with IFNα for 48 hrs. RNA was extracted and Peptide_ADARreporter RNA species were amplified and sequenced by NGS. (C) Dot plot of A-to-I PepTile library effect on A-to-I editing with or without IFNα treatment. Red line is the mean A-to-I editing of all the 8088 peptides (>100 read counts) no treatment: 25.75% IFNα: 37.6%. (D) Dot plot of A-to-I PepTile library fitness effect upon IFNα for 48 hrs.
Provided herein is a screening methodology to measure the effect of small peptide on A-to-I RNA editing in situ and screen thousands of peptides in a single experiment. First, a library of peptides with the potential of impairing A-to-I editing was designed and built. ADAR enzymes edit RNA only on double-stranded RNA structures and via ADAR's double stranded RNA-Binding Domain (dsRBD). […] The A-to-I PepTile library is composed of 19 Human proteins having dsRBD and 34 known protein-protein interactors of ADAR1/2. All these proteins were tiled into 40-mer peptides every 4 amino acids (FIG. 12A). To measure A-to-I editing, a biosensor consisting of a 71 bp dsRNA hairpin structure that gets A-to-I edited at a rate of 25% in A375 melanoma cells, and ~37% upon IFNα treatment was used. This A-to-I editing reporter is fused with DNA sequence encoding for a peptide from the A-to-I PepTile library. The A-to-I PepTile plasmid pool (10304 elements) was used to produced lentiviruses and transduced A375 cells at a low multiplicity of infection (MOI) (FIG. 12B). A part of the infected cells was treated with IFNα at 6000 U/ml for 48 hours, and then bulk RNA of the basal and treated condition was harvested. RNA was then retrotranscribed into cDNA and sequenced by Next-Generation Sequencing (NGS). With the sequencing data, the A-to-I editing percentage of the RNA reporter for each PepTile is calculated since both elements are encoded on the same transcript. Moreover, with this screen one can also measure the abundance of the PepTiles between the untreated and treated conditions and determine Fitness score associated to every PepTile. To ensure a robust and more accurate A-to-I editing % estimation a cut-off of 100 read counts was set for each PepTile. […] SEQ ID NOs: 2125-2147 are A-to-I peptide inhibitors and SEQ ID NOs: 2148-2210 are A-to-I activators. In addition, 117 PepTiles were identified that either synergize (SEQ ID NOs: 2211-2243) or protect (SEQ ID NOs: 2244-2327) to IFNα-induced cell death (FIG. 12D and Table 5). These PepTiles are potential new therapeutic agents that can modulate the Interferon pathway. They may be beneficial in treating inflammatory conditions and may also enhance the effectiveness of cancer immunotherapy through synergistic effects.

[1] = system: A-to-I RNA editing reporter (ADAR) in A375; test: A-to-I PepTile (REPTILE) screen: A-to-I editing of dsRNA hairpin reporter by NGS; type: cell-based, human; details: for % A-to-I editing (IFNα): IFNα 6000 U/ml for 48 hours; for % A-to-I editing (Basal): no treatment
From the text: as §1
FIGS. 17A-17F show A-to-I RNA Editing PiTile (REPTILE) screen in A375. (A) A-to-I RNA Editing PiTile (REPTILE) library design consist of fragmentation of all known ADAR1, ADAR2 interactors and all human double stranded RNA-binding protein into 40 amino acid long peptide. This library was then cloned into a lentivirus vector that also encode a DNA-encoded RNA loop reporter (A-to-I Rep) that is edited by ADAR proteins in cells at the RNA level. When the construct is expressed, the RNA loop gets edited on a single Adenosine, while the 40-mer peptide get expressed at the protein level. Then we can measure the impact of the peptide expression on the editing rate of the RNA loop reporter by sequencing (NGS and Sanger). (B) Experimental workflow of REPTILE screen in A375 cell line. Cells were transduced with the REPTILE library, and then treated for 48 hours with IFNα. Following the treatment, RNA was harvested, converted into cDNA and amplicon library containing peptide Identity (barcode) linked to the RNA loop reporter were prepared for NGS. (C) Result of the A375 REPTILE screen in the no treatment condition. Each dot represents a unique peptide that is associated with an A-to-I editing rate that was measured on the RNA loop. (D) Result of the A375 REPTILE screen in the IFNα condition. Each dot represents a unique peptide that is associated with an A-to-I editing rate that was measured on the RNA loop. Red line represent the A-to-I editing mean, Dash blue line represent 2 times the standard deviation of the % A-to-I editing across all the datasets. This cutoff was used to defined peptides hits that modulate RNA A-to-I editing. (E) Peptide A-to-I Inhibitor Hits intersection between no treatment (% A-to-I editing<15%) and IFNα (% A-to-I editing<27%) conditions. (F) Peptide A-to-I Enhancers Hits intersection between no treatment (% A-to-I editing>36%) and IFNα (% A-to-I editing>47%) conditions.
Provided herein is a screening methodology to measure the effect of small peptide on A-to-I RNA editing in situ and screen thousands of peptides in a single experiment. First, a library of peptides with the potential of impairing A-to-I editing was designed and built. ADAR enzymes edit RNA only on double-stranded RNA structures and via ADAR's double stranded RNA-Binding Domain (dsRBD). […] The A-to-I PepTile library is composed of 19 Human proteins having dsRBD and 34 known protein-protein interactors of ADAR1/2. All these proteins were tiled into 40-mer peptides every 4 amino acids (FIG. 12A). To measure A-to-I editing, a biosensor consisting of a 71 bp dsRNA hairpin structure that gets A-to-I edited at a rate of 25% in A375 melanoma cells, and ~37% upon IFNα treatment was used. This A-to-I editing reporter is fused with DNA sequence encoding for a peptide from the A-to-I PepTile library. The A-to-I PepTile plasmid pool (10304 elements) was used to produced lentiviruses and transduced A375 cells at a low multiplicity of infection (MOI) (FIG. 12B). A part of the infected cells was treated with IFNα at 6000 U/ml for 48 hours, and then bulk RNA of the basal and treated condition was harvested. RNA was then retrotranscribed into cDNA and sequenced by Next-Generation Sequencing (NGS). […]

[2] = IFNα 6000 U/ml for 48 hours vs untreated
[3] = A375, PepTile abundance upon IFNα treatment, negative = synthetic lethal, positive = protector

Row | Sequence | Fitness Score IFNα (A375 cells; [2]) | % A-to-I editing (IFNα) [1] [%] | % A-to-I editing (Basal) [1] [%] | Fitness Score IFNα (A375 cells; [3])
1 | MSESGNSARSSGISSQNSSTSDGDRSVSSQSSSSVSSQVTT [CDKN2AIP_47] | -1.31 | 26.81 | 14.82 | 
2 | MAGPLGPGDAVRRVLECVATGTLLTDGPGLQDPCERDQTDA [ZFR2_207] | 1.51 | 51.31 | 45.30 | 
3 | MSLLTGLSDSQVRAFRHTSTLAAMKLMTALVNVALNLSIHQ [STAG1_52] | -0.26 | 58.66 | 46.34 | 
4 | MQAHLAMGGGPGPGTDFTSDQADFPDTLFQEFEPPAPRPGL [ADARB2_50] | 0.65 | 51.37 | 40.11 | 
5 | MKEHMDAINHDTKELEKMTNRQGMLLKKKEECMKKIRELGS [SMC3_228] | -3.54 | 23.22 | 13.27 | -3.54
6 | MAVRRVLECVATGTLLTDGPGLQDPCERDQTDALEPMTLQE [ZFR2_209] | 0.22 | 50.31 | 39.66 | 
7 | MVYQAPLSLATVPHQALGRTQSSPAAPGGMKSPPDQPVKHL [HDAC5_161] | -0.12 | 48.17 | 43.88 | 
8 | MYSGYEAAVYSAASSYYQQQQQQQKQAAAAAAAAAATAAWT [ZFR_67] | 2.43 | 47.21 | 41.43 | 2.43
9 | MWDSIIQQATKNVDILKDPETVKQLGSILKTNVRACKAVGH [XPO1_167] | 1.42 | 25.96 | 11.93 | 
10 | MKECVDHLSRDEDEEKLVASLWGAERCLRVLESVTVHNPEN [WAPAL_208] | 1.55 | 50.33 | 50.48 | 
11 | MIIYDEYMMDTVISLLTGLSDSQVRAFRHTSTLAAMKLMTA [STAG1_49] | 0.55 | 48.18 | 44.91 | 
12 | MGRRSSGGGRYRNRSPSDSDMEDYSPPPSLSEVARKMKKKE [NIPBL_285] | 1.59 | 47.59 | 42.29 | 
13 | MVSSAAGPLGPGDAVRRVLECVATGTLLTDGPGLQDPCERD [ZFR2_206] | 0.81 | 55.48 | 44.05 | 
14 | MASLQISPQPRPWRPLPAQAQSAWGPAPAPATYRAEGGWPQ [ADAD2_6] | 3.12 | 48.57 | 40.89 | 3.12
15 | MDTVISLLTGLSDSQVRAFRHTSTLAAMKLMTALVNVALNL [STAG1_51] | -0.15 | 80.32 | 74.10 | 
